The results in this text go back to patent US20060063759A1, “Tricyclic steroid hormone nuclear receptor modulators” (priority 2002, published 2006).

pKi: −log10 of the molar value.

For this assay, the target named is T1, human MR (Homo sapiens, UniProt P08235).
T1 construct: The full length human MR gene is cloned from a human kidney or human brain cDNA library; His tag from the pAcHLT vector (own knowledge); made in house; host or cells: Sf9 insect cells (baculovirus, pAcHLT transfer vector)
T1 sequence (P08235 1-984): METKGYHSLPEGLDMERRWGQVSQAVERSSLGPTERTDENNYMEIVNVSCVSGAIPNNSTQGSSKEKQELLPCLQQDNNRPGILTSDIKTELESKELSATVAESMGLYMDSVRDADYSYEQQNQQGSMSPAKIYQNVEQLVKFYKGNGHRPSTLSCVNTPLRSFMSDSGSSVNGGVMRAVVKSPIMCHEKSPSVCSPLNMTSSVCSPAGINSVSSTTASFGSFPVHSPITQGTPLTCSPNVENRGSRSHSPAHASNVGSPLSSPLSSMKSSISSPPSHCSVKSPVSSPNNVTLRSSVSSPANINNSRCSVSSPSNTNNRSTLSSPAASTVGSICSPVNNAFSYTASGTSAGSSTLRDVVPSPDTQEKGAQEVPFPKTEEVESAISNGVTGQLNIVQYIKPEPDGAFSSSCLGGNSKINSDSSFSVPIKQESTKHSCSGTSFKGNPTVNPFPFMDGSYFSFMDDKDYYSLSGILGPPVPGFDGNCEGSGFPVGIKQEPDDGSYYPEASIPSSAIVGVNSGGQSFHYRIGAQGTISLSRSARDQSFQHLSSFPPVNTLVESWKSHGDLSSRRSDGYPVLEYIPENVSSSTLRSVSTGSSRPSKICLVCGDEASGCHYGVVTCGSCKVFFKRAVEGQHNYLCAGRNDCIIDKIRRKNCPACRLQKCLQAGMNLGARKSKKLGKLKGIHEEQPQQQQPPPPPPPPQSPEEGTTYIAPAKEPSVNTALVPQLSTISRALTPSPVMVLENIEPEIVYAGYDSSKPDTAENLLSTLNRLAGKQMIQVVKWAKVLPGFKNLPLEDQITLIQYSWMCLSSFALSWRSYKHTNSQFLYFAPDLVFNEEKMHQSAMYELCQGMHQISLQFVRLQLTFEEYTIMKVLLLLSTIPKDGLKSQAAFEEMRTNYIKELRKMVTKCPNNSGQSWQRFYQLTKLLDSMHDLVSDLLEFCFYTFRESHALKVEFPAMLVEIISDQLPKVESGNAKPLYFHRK
Put plainly: Mineralocorticoid Receptor Binding Assay ([3H]-aldosterone). Conditions: [3H]-aldosterone binding, human MR expressed in Sf9 cells; read-out: MR Ki. The procedure:
All ligands, radioligands, solvents, and reagents employed in the binding assays are readily available from commercial sources, or can be readily synthesized by the ordinarily skilled artisan.
The full length human MR gene is cloned from a human kidney or human brain cDNA library. […] The PCR reaction is performed in a final volume of 50 μl containing about 1 μl of a 50× stock solution of polymerase; about 1 μl of a 50× stock solution of dNTP; about 5 μl of an appropriate PCR buffer; about 1 μl of each primer; about […] of a H. kidney or H. brain cDNA library; and about 36 μl of water. The reaction is allowed to denature for about 30 seconds at 95 degrees Celsius, anneal for about 30 seconds at 55 degrees Celsius, and extend for about 5 minutes at 72 degrees Celsius, the sequence being repeated for a total of about 35 cycles. […] To extract the cDNA product from the agarose gel, the QIAEX II Gel Extraction protocol (QIAGEN, Inc.) is employed according to the manufacturer's instructions. Following extraction, the MR cDNA is cloned into an appropriate cloning vector (Zero Blunt TOPO PCR Cloning Kit Invitrogen, Inc.) and a pAcHLT-baculovinis transfer vector (B.D./Pharminogen), then expressed in SF9 insect cells, essentially according to manufacturer's instructions. Sf9 cells are grown at a scale where gram quantity cell pellets are obtained for subsequent use in the MR binding assay. Harvested cell pellets are lysed by repeated freeze-thaw cycles (about 4) in a suitable lysis buffer then centrifuged at about 1×10^3 G (with the supernatant being saved for future assays).
MR binding assays are performed in a final total volume of about 250 μl containing about 20-25 μg of protein and 0.5 nM of [^3H]-aldosterone plus varying concentrations of test compound or vehicle. The assay binding buffer consists of 30 mM sodium molybdate, 30 mM of TRIS-HCl, 5 mM sodium phosphate, 5 mM sodium pyrophosphate, and about 10% glycerol, pH=7.5.
Incubations are carried out at 4 degrees Celsius with shaking for about 16 hours. 200 μl aliquots of each incubation are filtered onto Millipore HA 0.45 micron 96-well filter plates, pre-moistened with cold 30 mM TRIS-HCl. The filter plates are suctioned dry with vacuum and immediately washed 3× with cold 30 mM TRIS-HCl. The plates are then punched out and the amount of receptor-ligand complex is determined by liquid scintillation counting using 4 ml of Ready Protein Plus™ liquid scintillation cocktail.
IC50 values (defined as the concentration of test compound required to decrease [^3H]-aldosterone binding by 50%/o) are then determined.

For the compound `CS(=O)(=O)Nc1cccc(C=C2c3ccccc3CSc3c(Cl)cccc32)c1` [Example 720], the pKi was above 6.30.

With `Cc1cccc2c1/C(=C/c1cccc(NS(C)(=O)=O)c1)c1ccccc1CC2` [Example 313], the pKi is above 6.30.

Take `Cc1ccc2c(c1)/C(=C/c1cccc(NS(C)(=O)=O)c1)c1ccccc1CO2` [Example 678]: the pKi is above 6.30.

For `O=c1[nH]c2ccc(/C=C3/c4ccc(F)cc4OCc4ncccc43)cc2[nH]1` [Example 625], the pKi is above 6.30.

Regarding `O=c1[nH]c2cc(/C=C3\c4ccc(F)cc4OCc4ncsc43)ccc2n1CCN1CCOCC1` [Example 719], the pKi is above 6.30.

For `O=c1[nH]c2ccc(CC3c4ccccc4COc4cc(F)ccc43)cc2[nH]1` (centres unmarked) [Example 645], the pKi was above 6.30.

On to `C/C(=C1\c2ccccc2CCc2cc(OCC3CC3)ccc21)c1cccc(NS(C)(=O)=O)c1` [Example 825], for which the pKi was above 6.30.

With `CCOc1ccc2c(c1)OCc1ccccc1/C2=C(\C)c1cccc(NS(C)(=O)=O)c1` [Example 815], the pKi was above 6.30.

For the compound `CC(C)S(=O)(=O)Nc1ccc(C=C2c3ccccc3CCc3ccccc32)cc1` [Example 107, Propane-2-sulfonic acid [4-(10,11-dihydro-dibenzo[a,d]cyclohepten-5-ylidenemethyl)-phenyl]-amide], the pKi was above 6.30.

For `CS(=O)(=O)Nc1cccc(C=C2c3ccccc3CSc3c(Cl)cc(Cl)cc32)c1` [Example 697], the pKi was above 6.30.

As to `CS(=O)(=O)Nc1cccc(C=C2c3ccccc3CCc3ccsc32)c1` [Example 493], the pKi was above 6.30.

Regarding `COCC(=C1c2ccccc2CCc2cc(Cl)ccc21)c1cccc(NS(C)(=O)=O)c1` [Example 756, N-{3-[1-(2-Chloro-10,11-dihydro-dibenzo[a,d]cyclohepten-5-ylidene)-2-methoxy-ethyl]-phenyl}-methanesulfonamide], the pKi was above 6.30.

In the case of `C/C(=C1/c2ccccc2CCc2cc(OCC3CC3)ccc21)c1cccc(NS(C)(=O)=O)c1` [Example 826], the pKi was above 6.30.

As for `COc1ccc2c(c1)CCc1cc(Cl)ccc1/C2=C\c1cccc(NS(C)(=O)=O)c1` [Example 425], the pKi was above 6.30.

On to `C/C(=C1/c2ccccc2CCc2cc(C)ccc21)c1cccc(NS(C)(=O)=O)c1` [Example 782], for which the pKi was above 6.30.

For the compound `CS(=O)(=O)Nc1cccc(/C=C2\c3ccc(F)cc3CCc3ncccc32)c1` [Example 486, (E)-N-[3-(8-fluoro-10,11-dihydro-benzo[4,5]cyclohepta[1,2-b]pyridin-5-ylidenemethyl)-phenyl]-methanesulfonamide], the pKi was above 6.30.

Take `O=c1[nH]c2cc(/C=C3/c4ccc(F)cc4OCc4ncccc43)ccc2n1CCN1CCOCC1` [Example 618, (E)-5-(8-Fluoro-11H-10-oxa-1-aza-dibenzo[a,d]cyclohepten-5-ylidenemethyl)-1-(2-morpholin-4-yl-ethyl)-1,3-dihydro-benzoimidazol-2-one]: the pKi is above 6.30.

For `CCCCOc1ccc2c(c1)OCc1ccccc1/C2=C(/C)c1cccc(NS(C)(=O)=O)c1` [Example 816], the pKi is above 6.30.

For the compound `C/C(=C1\c2ccccc2COc2cc(Cl)ccc21)c1cccc(NS(C)(=O)=O)c1` [Example 791], the pKi is above 6.30.

`C/C(=C1\c2ccccc2CCc2cc(C)ccc21)c1cccc(NS(C)(=O)=O)c1` [Example 781]: the pKi is above 6.30.

As for `CS(=O)(=O)Nc1cccc(/C=C2/c3ccccc3CCc3ccncc32)c1` [Example 513], the pKi is above 6.00.

`CSc1cccc(C=C2c3ccccc3CCc3ccccc32)c1` [Example 278, 5-(3-Methylsulfanyl-benzylidene)-10,11-dihydro-5H-dibenzo[a,d]cycloheptene]: the pKi was above 6.30.

Take `Cn1c(=O)n(C)c2cc(/C=C3\c4ccccc4COc4cc(F)ccc43)ccc21` [Example 717]: the pKi was above 6.30.

Regarding `COc1ccc2c(c1)CCc1cc(Cl)ccc1/C2=C/c1cccc(NS(C)(=O)=O)c1` [Example 426], the pKi is above 6.30.

`CS(=O)(=O)Nc1cccc(/C=C2/c3ccccc3CCc3cc(F)ccc32)c1` [Example 354]: the pKi was above 6.30.

As to `O=[N+]([O-])c1cccc(/C=C2/c3ccccc3OCc3c(Cl)cccc32)c1` [Example 621], the pKi was above 6.30.

Regarding `CS(=O)(=O)Nc1ccc2c(c1)CCc1ccccc1/C2=C/c1cccc(O)c1` [Example 337], the pKi is above 6.00.

Consider `CC(=O)Nc1nc2c(s1)/C(=C\c1cccc(NS(C)(=O)=O)c1)c1ccccc1CC2` [Example 558], for which the pKi was above 6.30.

On to `C/C(=C1/c2ccccc2COc2cc(Cl)ccc21)c1cccc(NS(C)(=O)=O)c1` [Example 792], for which the negative logarithm of the Ki (pKi) is above 6.30.
